From article PMC7349657, “Efficient Targeted Degradation via Reversible and Irreversible Covalent PROTACs” (Journal of the American Chemical Society, 2020)
pIC50: −log10 of the molar value.

Assays:
BTK = BTK (Homo sapiens, UniProt Q06187); assay: Time course of BTK degradation in Ramos and Mino cells; format: cell-based; set-up: endogenous in cells; host or cells: Mino (ATCC CRL-3000), Ramos (ATCC CRL-1596), K562 (NCI-60); conditions: 100 nM PROTAC, Ramos cells (RC-3: Mino cells)
Method: We followed the rate of BTK degradation facilitated by this compound series via a time course experiment in Ramos and Mino cells (Supporting Figure 3). The rates of degradation correlated well with the DC50 values observed after 24 h, with NC-1, IR-1, IR-2, and RC-3 degrading BTK within 2–4 h, while RC-2 and RC-1 required 6–24 h to reach maximum degradation.
Ramos (ATCC, CRL-1596), Mino (ATCC, CRL-3000), or K562 (NCI-60) cell lines were counted and diluted to 10^6 cell/mL, using 1 mL per well in a 24-well plate, and U2OS (ATCC HTB-96) cells overexpressing human BTK WT or C481S mutant were grown using 2 mL in a six-well plate (see Supporting Information). Cells were incubated with 1% DMSO or compound in indicated concentrations for 24 h unless indicated differently, or cells were left untreated. Lysates were prepared as previously described,[29] and samples were measured for total protein quantification by bicinchoninic acid (BCA) assay (#23225 ThermoFisher Scientific) supplemented with 4× loading buffer including 20 mM DTT, heated to 70 °C for 10 min, loaded into 4% SDS-PAGE gel, run for 45 min at 140 mV, then transferred into a nitrocellulose membrane (Biorad) using a Trans-Blot Turbo transfer system (Biorad). The membrane was stained with Ponceau (Sigma) to validate transfer for 10 min in gentle agitation then destained for 1 h with MQ water. The membrane was blocked with Licor blocking buffer (LIC927-70001) for 1 h, washed three times for 5 min with TBS-T, incubated with primary antibody BTK (D3H5) rabbit mAb (CST; 8547 S) overnight (16 h) at 4 °C, washed three times for 5 min with TBS-T, and incubated with primary antibody against β-actin (CST; 3700) for 1 h at 25 °C. Membrane was washed three times for 5 min with TBS-T, incubated with fluorescent secondary antibodies anti-mouse IgG Alexa Fluor 647 (CST: 4410S) and anti-rabbit-IgG IRDye 800(LICOR: 926-32211) for 1 h, then washed three times for 5 min with TBS-T, dried, and immediately imaged and analyzed using Licor Odyssey CLx. Prism (GraphPad) software was used to calculate degradation levels. We used second-order polynomial fits to estimate DC50 and Dmax values.
Supplementary Figure 3: BTK degradation time dependency.
Ramos (PI3I, RC-1, I R-1, R C-2, I R-2, NC-1) or Mino ( RC-3) cells were treated with 100 nM of PROTAC or DMSO for indicated times, subsequently harvested for BTK levels measurement via western blot.
(1 picture or pasted object on this page, not shown here)

wild-type BTK = wild-type BTK (Homo sapiens, UniProt Q06187); assay: In vitro kinase activity assay, wild-type BTK (Nanosyn)
wild-type BTK, sequence (Q06187 whole entry, species assumed): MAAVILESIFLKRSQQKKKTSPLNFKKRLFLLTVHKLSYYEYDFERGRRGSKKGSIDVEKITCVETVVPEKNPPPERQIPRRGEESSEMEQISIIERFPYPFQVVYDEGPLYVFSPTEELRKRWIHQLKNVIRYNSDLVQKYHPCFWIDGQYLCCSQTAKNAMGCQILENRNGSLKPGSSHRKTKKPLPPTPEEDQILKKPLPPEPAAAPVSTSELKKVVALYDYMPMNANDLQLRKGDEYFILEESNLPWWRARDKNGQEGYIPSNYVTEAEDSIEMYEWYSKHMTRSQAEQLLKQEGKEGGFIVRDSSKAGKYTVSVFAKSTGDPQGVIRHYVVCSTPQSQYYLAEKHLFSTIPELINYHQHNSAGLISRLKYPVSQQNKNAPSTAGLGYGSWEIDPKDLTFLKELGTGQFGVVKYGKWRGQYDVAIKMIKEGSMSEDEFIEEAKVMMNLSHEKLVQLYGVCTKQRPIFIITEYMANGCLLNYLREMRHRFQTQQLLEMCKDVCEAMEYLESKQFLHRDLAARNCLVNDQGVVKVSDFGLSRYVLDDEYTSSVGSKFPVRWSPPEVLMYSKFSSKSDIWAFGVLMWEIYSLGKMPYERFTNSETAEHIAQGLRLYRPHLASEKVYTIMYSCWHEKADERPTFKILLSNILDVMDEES

Ramos cells = assay: Metabolomic quantification of PROTAC cellular concentration; format: in vitro ADME, human; conditions: 2 hours; for Effective cellular concentration: 100 nM compound; for effective cellular concentration relative to IR-2 / effective cellular concentration relative to RC-2: 100 nM
Method: Raw data were analyzed using the MaxQuant software suite 1.6.0.16
(www.maxquant.org) with the Andromeda search engine2. The higher-energy collisional dissociation (HCD) MS/MS spe ctra were searched against an in silico tryptic digest of Homo sapiens proteins from the UniProt/Swiss-Prot sequence databas e (v. July 2019), including common contaminant proteins. All MS/MS spectra were searched with the following MaxQuant parameters: acetyl (protein N -terminus) and methionine oxidation as variable modifications; cysteine carbamidomethylation was set as fixed modification for all samples, exc ept for the SDT samples in which case carbamidomethylation was set as variable modification; max 2 missed cleavages; and precursors were initially matched to 4. 5 ppm tolerance and 20 ppm for fragment spectra. Peptide spectrum matches and proteins were automatically filtered to a 1% false discovery rate based on Andromeda score, pep tide length, and individual peptide mass errors. Processing was conducted without a match between runs.
Proteins were identified and quantified based on at least two unique peptides and based on the label -free quantification (LFQ) 3 values reported by Ma xQu ant. Every data set contained three sets of four replicates (one set for DMSO treated samples, one set for 50 nM and one set for 100 nM). Proteins were excluded from analysis if within all three sets, there were less than three samples with directly detect ed and quantified protein. After this filtering step, missing values were replaced from a normal distribution.
Sample preparation: 106 Ramos cells were treated in three replicates with 100 nM compound for 2 hours. Cells were then washed twice by centrifuge at 200 rcf, 4°C for 5 minutes, removing the supernatant and washed with ice cold PBS. Samples were then centrifuged at 200 rcf, 4°C for 5 minutes, then supernatant was removed and samples were frozen at -80°C. Samples were dispersed in 100 µl of PBS. From each sample, 20 µ l were mixed with 20 µl of 10% SDS in 50 mM ammonium bicarbonate, heated to 96 ° C for 5 minutes, and the protein concentration was measured by BCA ass ay. Another 75 µ l were mixed with 0.5 mL of 50% acetonitrile:water, sonicated 3 times 10 second s on ice, centrifuged for 10 minutes at 15000 rpm at 4°C, and the supernatant was transferred to a new tube and lyophilized.
The residue was dissolved in 25% acetonitrile in water in a volume calculated from the BCA assay to obtain a con centration equivalent to 1.09 µg / µl protein. The samples were centrifuged at 21,000 g for 5 min utes to remove insoluble material. Standard curves from 0.1-100 ng/mL for each compound were used for quantitation.
The LC–MS/MS instrument consi sted of an Acquit y I-class UPLC system (Waters) and Xevo TQ-XS triple quadrupole mass spectrometer (Waters) equipped with an electrospray ion source. Chromatographic separation was done on UPLC BEH C18 column (50mm × 2.1mm, 1.7-µm, Waters) using 50-100% gradient of 95%-aqueous acetonitrile with 0.1% formic acid in aqueous 0.1% formic acid during 2.5 minut e s, with a flow rate of 0. 3 mL min−1 and column temperature 30°C. Samples kept at 10°C were automatically injected in a volume of 3µl.
MS parameters (positive ion mode): capillary voltage - 2. 0kV, source temperature - […]
Targeting BTK in CLL cells
After signing an informed consent form approved by the Tel Aviv Medical Center IRB according to the Helsinki Accords, blood samples were collected from pat ients fulfilling the standard criteria for CLL. Peripheral blood mononuclear cells (PBMC) were isolated by Ficoll (Uppsala, Sweden) density-gradient centrifugation. Viable frozen cells were kept in FCS (Biological Industries, Beit-Haemek, Israel) containing 10% DMSO (Merck, Darmstadt, Germany) and stored in liquid nitrogen. Before use, frozen cells were thawed and cultured at 37°C, 5% CO 2, in RPMI medium supplemented with 10% FCS, penicillin, streptomycin, and L-glutamine (all from Biological Industries, Be it-Haemek, Israel.) […]

C481S BTK = assay: In vitro kinase activity assay, C481S BTK (Nanosyn); conditions: 2 h preincubation

BTK, sequence (Q06187 whole entry): as the sequence (Q06187 whole entry, species assumed) above

Structure (SMILES) | time to degrade BTK / reach maximum degradation (BTK) [h] | pIC50 (wild-type BTK) | Effective cellular concentration (Ramos cells) | effective cellular concentration relative to IR-2 (Ramos cells) [times] | effective cellular concentration relative to RC-2 (Ramos cells) [times] | fold reduction in potency, C481S vs wild-type BTK (C481S BTK)
Nc1ncnc2c1c(-c1ccc(Oc3ccccc3)cc1)nn2C1CCCN(C(=O)C=CCOCCOCCOCCOCCOCCOc2cccc3c2C(=O)N(C2CCC(=O)NC2=O)C3=O)C1 (stereo not shown) [IR-1] | 2 to 4 | 8.70 |  |  |  | 
CC(C)(C=C(C#N)C(=O)N1CCCC(n2nc(-c3ccc(Oc4ccccc4)cc3)c3c(N)ncnc32)C1)CCCOCCOCCOCCOCCOc1cccc2c1C(=O)N(C1CCC(=O)NC1=O)C2=O (stereo not shown) [RC-3] | 2 to 4 | 9.40 | 10.7 ± 3.1 pg compound / µg total protein | ~2 | ~10 | > 1000 fold
N#CC(=CCCCCOCCOCCOCCOCCOc1cccc2c1C(=O)N(C1CCC(=O)NC1=O)C2=O)C(=O)N1CCCC(n2nc(-c3ccc(Oc4ccccc4)cc3)c3c(N)ncnc32)C1 (stereo not shown) [RC-2] | 6 to 24 | 9.00 | 0.93 ± 0.06 pg compound / µg total protein |  |  | 68 fold
Nc1ncnc2c1c(-c1ccc(Oc3ccccc3)cc1)nn2C1CCCN(C(=O)CCCCCCOCCOCCOCCOCCOc2cccc3c2C(=O)N(C2CCC(=O)NC2=O)C3=O)C1 (stereo not shown) [NC-1] | 2 to 4 | 7.80 | 8.6 ± 2.6 pg compound / µg total protein | ~2 | ~10 | < 2 fold
Nc1ncnc2c1c(-c1ccc(Oc3ccccc3)cc1)nn2C1CCCN(C(=O)C=CCCCCOCCOCCOCCOCCOc2cccc3c2C(=O)N(C2CCC(=O)NC2=O)C3=O)C1 (stereo not shown) [IR-2] | 2 to 4 | 7.85 | 4.1 ± 0.7 pg compound / µg total protein |  |  | only slight sensitivity to the mutation
